Test results taken from patent US7888527B2 (University of Virginia Patent Foundation, priority 2004, dated 2011).

Columns and labels:
human S1P3 receptor [1] = biological target: T1, human S1P3 receptor (Homo sapiens, UniProt Q99500); test: [γ-35S]GTP binding assay, HEK293T membranes (agonism and Schild antagonism); type: biochemical; design: expressed in transfected cells; host or cells: HEK293T, transient transfection; membranes; key to Schild analysis flag on pKb S1P3: *: Based on Schild analysis, the antagonism observed was not competitive; conditions: for EC50: -log molar concentration giving 50% of maximal [γ-35S]GTP binding, ± S.E.M., read-out: pEC50 S1P3 (converted); for Kb: read-out: pKb S1P3 (converted); for Agonist efficacy class S1P3: relative to S1P Emax
Source text: (§1) The appropriate receptor plasmid DNA (encoding human S1P1, human S1P2, human S1P3, human S1P4, human S1P5, human LPA1, human LPA2 or human LPA3 receptors) is mixed with equal amounts of expression plasmids encoding human Gi2α (for S1P3, a mutated (C352F) rat Gi2α is used), cow β1, and cow γ2 proteins, and these DNAs are used to transfect monolayers of HEK293T cells (where ‘T’ indicates expression of the SV-40 virus large T antigen) using the calcium phosphate precipitate method (7). After about 60 hours, cells are harvested, membranes prepared, aliquoted, and stored at −70° C. until use (8).
(§2) The [γ-^35S]GTP binding assay is performed as described previously (8). Membranes containing 1-5 μg of protein are incubated in 0.1 ml of binding buffer (in mM: HEPES/50, NaCl/100, MgCl2/10, pH 7.5) containing 5 μg of saponin, 10 μM GDP, 0.1 nM [γ-^35S]GTP (1200 Ci/mmol), and indicated lipid(s) for 30 min at 30° C. and collected using a Brandel Cell Harvester (Gaithersburg, Md.). Samples are then analyzed for bound radionuclide.
(§3) Briefly, nonlinear analysis of the best-fit line generated by plotting the negative log of the EC50 values obtained from agonist dose-response curves, in the absence and presence of varying concentrations of antagonist, was plotted against the concentration of antagonist to give the Kb value.
(§4) Statistical Analysis. The EC50 and IC50 values for all dose response curves were determined by nonlinear regression analysis of all data using the Graphpad Prism© program. The error associated with the data collected is reported as the standard error of the mean (S.E.M).

human S1P4 receptor = biological target: T2, human S1P4 receptor (Homo sapiens, UniProt O95977); test: [γ-35S]GTP binding assay, HEK293T membranes; type: biochemical; conditions: -log molar concentration giving 50% of maximal [γ-35S]GTP binding; ± S.E.M.; read-out: pEC50 S1P4 (converted)
T2 construct: expressed in transfected cells; host or cells: HEK293T, transient transfection; membranes
T2 sequence (O95977 1-384): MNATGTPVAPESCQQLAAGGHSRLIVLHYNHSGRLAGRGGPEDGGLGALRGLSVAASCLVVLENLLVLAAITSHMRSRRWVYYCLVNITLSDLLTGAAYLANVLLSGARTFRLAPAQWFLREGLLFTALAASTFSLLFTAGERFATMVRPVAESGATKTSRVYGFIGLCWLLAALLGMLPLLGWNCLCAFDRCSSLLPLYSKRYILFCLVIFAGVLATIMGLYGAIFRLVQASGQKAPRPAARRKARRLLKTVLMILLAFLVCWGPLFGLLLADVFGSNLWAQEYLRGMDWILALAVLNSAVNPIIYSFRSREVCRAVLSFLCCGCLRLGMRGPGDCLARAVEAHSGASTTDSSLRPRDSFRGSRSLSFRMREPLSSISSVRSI
Source text: as §1, §2, §4

human S1P3 receptor [2] = biological target: T1, human S1P3 receptor; test: [32P]S1P binding assay, HEK293T membranes; design: expressed in transfected cells; host or cells: HEK293T, transient transfection; membranes; conditions: for Ki: read-out: pKi S1P3 (converted)
Experimental: (§5) [^32P]-S1P was prepared by incubating sphingosine and [γ-^32P]ATP with cell lysate from HEK293T cells transiently transfected with human sphingosine kinase type 2 DNA. The 200 μl reaction contained 0.025 mM sphingosine, 1 mCi [γ-^32P]ATP (7000 Ci/mmol) and kinase buffer (in mM: Mg(C2H3O2)2 (in 50 mM Tris, pH 7.5)/10, NaF/10, and semicarbizide/2). The reaction was initiated by the addition of 20 μg of cell lysate and incubated at 37° C. for at least 30 minutes. […] The organic layer was isolated and the extraction procedure repeated two additional times with the remaining aqueous fraction. The combined organic fractions were dried under a stream of nitrogen gas and resuspended in aqueous 0.1% fatty acid free BSA.
(§6) Bound ligand was separated from free ligand by rapid filtration and analyzed in a liquid scintillation counter.
as §4

human S1P1 receptor [3] = biological target: T3, human S1P1 receptor (Homo sapiens, UniProt P21453); test: [32P]S1P binding assay, HEK293T membranes; design: expressed in transfected cells; host or cells: HEK293T, transient transfection; membranes; conditions: read-out: pKi S1P1 (converted)
Experimental: as §5, §6, §4

human S1P3 receptor [4] = biological target: T1, human S1P3 receptor; test: Intracellular calcium mobilization, T24 cells transfected stably with human S1P3 receptor; type: cell-based; design: expressed in transfected cells; conditions: T24-S1P3 cells versus wild-type T24 cells
Experimental: (§7) […] monolayers are co-transfected with the human S1P1, S1P2, S1P3 receptor encoding DNAs and the pIRESpuro2 plasmid DNA (Clontech, San Jose, Calif.,) using either Lipofectamine 2000 (Invitrogen, Carlsbad, Calif.) or FuGENE 6 (Roche Applied Science, Indianapolis, Ind.). Clonal populations expressing the puromycin acetyltransferase gene are selected by addition of puromycin (Sigma-Aldrich, St. Louis, Mo.) to the culture media. T24 cells are grown in monolayers at 37° C. in a 5% CO2/95% air atmosphere in growth media consisting of: 95% DMEM/F-12 medium and 10% charcoal/dextran stripped FBS.
A FlexStation™ fluorimeter (Molecular Devices, Menlo Park, Calif.) was used to measure intracellular calcium in native T24 cells and T24 cells transfected stably with either human S1P2 or human S1P3 receptor DNA. Cells were seeded (˜50,000 cells/well) in 96-well, clear bottom black microplates (Corning Costar Corp.) and left overnight at 37° C. The cells were dye-loaded with 4 μM Fluo-4AM ester in a loading buffer (Hank's Balanced Salt Solution, […], containing 20 mM HEPES, 0.1% fatty acid free BSA, and 2.5 mM probenecid) for 30 minutes at 37° C. After washing cell monolayers three times with phosphate buffered saline, loading buffer was added and the cells exposed to sets of compounds for 3 minutes at 25° C. in the FlexStation™. In all cases, each concentration of every compound was tested in at least triplicate. […] The cells were washed with phosphate buffered saline and exposed to compounds immediately, as described above.
as §3

human S1P1 receptor [5] = biological target: T3, human S1P1 receptor; test: [γ-35S]GTP binding assay, HEK293T membranes (agonism and Schild antagonism); type: biochemical; design: expressed in transfected cells; host or cells: HEK293T, transient transfection; membranes; key to Schild analysis flag on pKb S1P1: *: Based on Schild analysis, the antagonism observed was not competitive; conditions: for EC50: -log molar concentration giving 50% of maximal [γ-35S]GTP binding, ± S.E.M., read-out: pEC50 S1P1 (converted); for Kb: read-out: pKb S1P1 (converted); for Agonist efficacy class S1P1: relative to S1P Emax
Source text: as §1, §2, §3, §4

human S1P1 receptor [6] = biological target: T3, human S1P1 receptor; test: Cell migration assay, T24 cells transfected stably with human S1P1 receptor; type: cell-based; design: expressed in transfected cells; conditions: 50 nM antagonist
Experimental: as §7
Cell migration assays are performed using modified Boyden chambers (tissue culture-treated, 24-mm diameter, 10-μm thickness, 8-μm pores, Transwell®; Costar Corp., Cambridge, Mass.) containing polycarbonate membranes that are coated on the underside with 0.1% gelatin. The underside of the polycarbonate membranes is rinsed once with migration media (DMEM/F12 without Phenol Red and 0.1% fatty acid free BSA) and then immersed in the lower chamber containing two milliliters of migration media. T24 cells transfected stably with human S1P1 receptor DNA were grown in DMEM/F12 media containing charcoal/dextran stripped FBS and 10 μg/ml puromycin to 100% confluence in 150×2.5 mm tissue culture plates and serum starved at least 12 hours. Serum-starved cells were removed from culture dishes with 10× Trypsin-EDTA (Hanks' balanced salt solution containing 5 mM EDTA and 25 mM HEPES, pH 7.2, and 0.1% trypsin; Invitrogen, San Diego, Calif.), suspended in migration buffer and collected by centrifugation at 130×g for 5 minutes. The supernatant fluid was removed by aspiration and cell pellet resuspended in migration media (10^6 cells/ml). […] The non-migrating cells in the upper chamber were removed by aspiration and the migratory cells attached to the bottom surface of the membrane were isolated by incubation in 10× Trypsin-EDTA for 1 min at room temperature and gently tapping the plate to dislodge cells from the membrane. The mass of migratory cells per membrane was evaluated by combining 100 μl of cell suspension with an equal volume of CyQuant dye solution (3.0 ml of 2× lysis buffer and 15 μl CyQuant dye), and the resulting fluorescence quantified using the FlexStation™ fluorimeter (Molecular Devices, Menlo Park, Calif.). Each determination represents the average of two individual migration chambers. […] The monolayer was washed three times with phosphate buffered saline and processed immediately for the cell migration assay, as described above.

human S1P5 receptor = biological target: T4, human S1P5 receptor (Homo sapiens, UniProt Q9H228); test: [γ-35S]GTP binding assay, HEK293T membranes; type: biochemical; conditions: for EC50: -log molar concentration giving 50% of maximal [γ-35S]GTP binding, ± S.E.M., read-out: pEC50 S1P5 (converted); for Agonist efficacy class S1P5: relative to S1P Emax
T4 construct: expressed in transfected cells; host or cells: HEK293T, transient transfection; membranes
Source text: as §1, §2, §4

S1P2 receptor = biological target: T5, S1P2 receptor (Homo sapiens, UniProt O95136); test: [γ-35S]GTP binding assay, HEK293T membranes; type: biochemical; conditions: for EC50: -log molar concentration giving 50% of maximal [γ-35S]GTP binding, ± S.E.M., read-out: pEC50 S1P2 (converted)
T5 construct: expressed in transfected cells; host or cells: HEK293T, transient transfection; membranes
Source text: as §1, §2, §4

[7] = Metabolic stability in biologic systems (mouse); type: in vivo; conditions: in a mouse
S1P receptors = test: Antagonist properties (potency, S1P receptor type selectivity) compared with VPC23019

T3 sequence (P21453 whole entry): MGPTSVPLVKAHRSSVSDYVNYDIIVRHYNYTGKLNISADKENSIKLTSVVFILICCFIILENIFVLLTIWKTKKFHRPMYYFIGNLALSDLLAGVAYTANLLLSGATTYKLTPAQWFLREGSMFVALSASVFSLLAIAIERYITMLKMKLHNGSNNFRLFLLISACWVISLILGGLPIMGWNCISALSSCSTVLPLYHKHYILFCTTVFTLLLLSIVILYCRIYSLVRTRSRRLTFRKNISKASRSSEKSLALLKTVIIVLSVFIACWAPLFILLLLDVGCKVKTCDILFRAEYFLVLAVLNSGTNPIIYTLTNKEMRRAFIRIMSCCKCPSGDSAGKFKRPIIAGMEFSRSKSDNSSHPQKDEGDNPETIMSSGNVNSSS
T4 sequence (Q9H228 whole entry): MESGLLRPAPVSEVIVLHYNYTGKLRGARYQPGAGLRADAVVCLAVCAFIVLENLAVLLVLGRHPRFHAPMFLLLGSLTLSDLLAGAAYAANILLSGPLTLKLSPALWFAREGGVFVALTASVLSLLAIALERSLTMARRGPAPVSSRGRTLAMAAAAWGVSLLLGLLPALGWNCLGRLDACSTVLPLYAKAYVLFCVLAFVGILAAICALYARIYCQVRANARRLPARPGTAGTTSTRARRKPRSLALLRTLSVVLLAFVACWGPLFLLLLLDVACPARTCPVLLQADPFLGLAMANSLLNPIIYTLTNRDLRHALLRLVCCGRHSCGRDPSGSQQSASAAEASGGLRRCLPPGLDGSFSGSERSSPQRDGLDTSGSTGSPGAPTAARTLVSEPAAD
T1 sequence (Q99500 whole entry): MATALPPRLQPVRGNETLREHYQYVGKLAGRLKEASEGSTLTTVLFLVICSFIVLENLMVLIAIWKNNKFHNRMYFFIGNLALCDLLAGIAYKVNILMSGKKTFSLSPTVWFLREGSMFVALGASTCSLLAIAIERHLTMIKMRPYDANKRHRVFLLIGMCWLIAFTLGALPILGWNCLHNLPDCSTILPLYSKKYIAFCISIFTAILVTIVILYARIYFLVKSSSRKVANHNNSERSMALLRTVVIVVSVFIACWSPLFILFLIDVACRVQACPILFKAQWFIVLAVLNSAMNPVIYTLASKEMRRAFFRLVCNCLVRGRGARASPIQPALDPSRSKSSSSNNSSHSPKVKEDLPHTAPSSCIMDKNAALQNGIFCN
T5 sequence (O95136 whole entry): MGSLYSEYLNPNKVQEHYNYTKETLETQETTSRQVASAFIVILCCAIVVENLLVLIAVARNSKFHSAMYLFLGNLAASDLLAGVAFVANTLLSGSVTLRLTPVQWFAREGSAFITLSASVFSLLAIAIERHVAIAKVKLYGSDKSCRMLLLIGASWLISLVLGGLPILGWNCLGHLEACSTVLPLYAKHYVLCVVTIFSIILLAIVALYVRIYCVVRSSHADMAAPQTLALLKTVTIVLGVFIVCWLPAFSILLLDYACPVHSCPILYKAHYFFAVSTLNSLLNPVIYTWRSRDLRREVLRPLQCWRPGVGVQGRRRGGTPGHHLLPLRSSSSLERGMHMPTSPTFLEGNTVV

| EC50 (human S1P4 receptor) | Ki (human S1P3 receptor [2]) | Ki (human S1P1 receptor [3]) | EC50 (human S1P1 receptor [5]) | Kb (human S1P3 receptor [1]) | Blockade of VPC22277 (10 nM)-induced migration (human S1P1 receptor [6]) | EC50 (human S1P5 receptor) | EC50 (S1P2 receptor) | Kb (human S1P1 receptor [5]) | Agonist activity at the S1P1 receptor (human S1P1 receptor [5]) | Compound | Agonist efficacy class S1P3 (human S1P3 receptor [1]) | Agonist efficacy class S1P5 (human S1P5 receptor) | Agonist efficacy class S1P1 (human S1P1 receptor [5]) | further results |
| --- | --- | --- | --- | --- | --- | --- | --- | --- | --- | --- | --- | --- | --- | --- |
| 155 nM | 7.59 nM | 1.1 nM | 4.07 nM |  |  |  |  |  |  | CCCCCCCCCCCCC/C=C/[C@@H](O)[C@@H](N)COP(=O)(O)O [Compound S1P, Sphingosine 1-phosphate, reference compound] |  |  |  | EC50 (human S1P3 receptor [1]): 2.24 nM; Calcium mobilization by compound alone (human S1P3 receptor [4]): dose-dependent calcium mobilization was observed |
| 1100 nM |  | 61.7 nM |  | 10500 nM | Blockade | 135 nM | > 10000 nM | 135 nM |  | CCCCCCc1cccc(NC(=O)[C@H](N)COP(=O)(O)O)c1 [VPC23031] | na (no agonist activity (<10% of S1P Emax)) | (wpa) (weak partial agonist activity (10-50% of S1P Emax)) | na (no agonist activity (<10% of S1P Emax)) | Schild analysis flag on pKb S1P3 (human S1P3 receptor [1]): * |
| 851 nM |  |  | 81.3 nM |  |  | > 10000 nM | > 10000 nM |  | agonists (or partial agonists) | CCCCCCCCCCc1cccc(NC(=O)[C@H](N)COP(=O)(O)O)c1 [VPC23069] | (wpa) (weak partial agonist activity (10-50% of S1P Emax)) |  |  | EC50 (human S1P3 receptor [1]): 1910 nM |
| 1170 nM |  |  | 676 nM |  |  |  | > 10000 nM |  | agonists (or partial agonists) | CCCCCCCCCc1cccc(NC(=O)[C@H](N)COP(=O)(O)O)c1 [VPC23079] | na (no agonist activity (<10% of S1P Emax)) | na (no agonist activity (<10% of S1P Emax)) |  |  |
| 851 nM | 1580 nM | 891 nM |  | 437 nM | Blockade | > 10000 nM | > 10000 nM | 490 nM |  | CCCCCCCCc1ccccc1NC(=O)[C@H](N)COP(=O)(O)O [VPC23089] | na (no agonist activity (<10% of S1P Emax)) |  | na (no agonist activity (<10% of S1P Emax)) | Schild analysis flag on pKb S1P3 (human S1P3 receptor [1]): * |
|  |  |  | 2.24 nM |  |  |  |  |  | agonists (or partial agonists) | CCCCCCCCc1cccc(NC(=O)[C@@H](N)COP(=O)(O)O)c1 [VPC25027] | na (no agonist activity (<10% of S1P Emax)) |  | (pa) (partial agonist activity (50-85% of S1P Emax)) | Agonist efficacy class S1P2 (S1P2 receptor; relative to S1P Emax): na (no agonist activity (<10% of S1P Emax)) |
| 166 nM | 97.7 nM | 13.5 nM |  | 1410 nM | Blockade | 11.5 nM | > 10000 nM | 562 nM |  | CCCCCCCc1cccc(NC(=O)[C@H](N)COP(=O)(O)O)c1 [VPC25239] | na (no agonist activity (<10% of S1P Emax)) | (pa) (partial agonist activity (50-85% of S1P Emax)) | na (no agonist activity (<10% of S1P Emax)) | Potency at the S1P3 receptor relative to lead compound VPC23019 (human S1P3 receptor [2]): one log order more potent; Schild analysis flag on pKb S1P1 (human S1P1 receptor [5]): * |
|  |  |  |  |  |  |  |  |  |  | CCCCCCCCc1cccc(NC(=O)[C@H](N)CCP(=O)(O)O)c1 [VPC44116] |  |  |  | Metabolic stability in biologic systems [7]: at least 18 hours; Antagonist properties (potency, S1P receptor type selectivity) versus VPC23019 (S1P receptors): indistinguishable from VPC23019 |
